We go through eleven compounds from PMC6205224 (Molecular cell, 2018).

One data set has as its target Mtb RNAP σ^A holoenzyme (Mycobacterium tuberculosis, UniProt P9WGY7+P9WGY9). Nature of the data set: Fluorescence-detected RNAP-inhibition assay. It is filed as biochemical.
The target in data set [1] is E. coli RNAP σ^70 holoenzyme (Escherichia coli, UniProt P0A8T7+P0A8V2). Nature of the data set: Fluorescence-detected RNAP-inhibition assay. It is filed as biochemical.
Data set [2] has as its target S. aureus RNAP σ^A holoenzyme (Staphylococcus aureus, UniProt P47768+Q2G0N5). Nature of the data set: Fluorescence-detected RNAP-inhibition assay. It is filed as biochemical. The conditions noted are these: Fig. S5.
Data set [3] deals with E. coli D21f2tolC. It is filed as cell-based, Escherichia coli. The conditions noted are these: for cross-resistance of E. coli Lpm-resistant mutants to the compound: chromosomal Lpm-resistant mutants of E. coli D21f2tolC, Fig. 2D; for MICwild-type: wild-type E. coli D21f2tolC, LB broth, 16 h at 37°C, growth inhibited by ≥90%.
In the next data set the test system is RNAP clamp. The conditions noted are these: interactions with SW1 and opposite face of SW2; ref Chakraborty et al., 2012; cited from earlier work.
Data set [4] addresses T. thermophilus RNAP σ^A holoenzyme (Thermus thermophilus, UniProt Q8RQE8+Q8RQE9). Nature of the data set: Fluorescence-detected RNAP-inhibition assay. It is filed as biochemical.
The next data set concerns human RNAP I/II/III. Nature of the data set: Radiochemical RNAP-inhibition assay with HeLa nuclear extract. It is filed as biochemical. Conditions: Fig. S4C.
In data set [5] the test system is E. coli D21f2tolC. Nature of the data set: Checkerboard interaction assay. It is filed as cell-based, Escherichia coli. The conditions noted are these: combination of Lpm and Rif; checkerboard format; Fig. 2F.
Data set [6] concerns the target E. coli RNAP σ^70 holoenzyme (Escherichia coli, UniProt P0A8T7+P0A8V2, D284F/E106F). Nature of the data set: Single-molecule FRET of RNAP clamp conformation. The conditions noted are these: 20 μM Lpm; Fig. 4E-F. It is filed as biochemical.
Another data set deals with E. coli strain D21f2tolC. Nature of the data set: Colony formation on LB-agar plates containing Lpm. The conditions noted are these: 200 μg/ml ampicillin, 1 mM IPTG, 24-48 h at 37°C. It is filed as cell-based, Escherichia coli.
For data set [7] the following is noted: in vivo; cited from earlier work.

Regarding 4"-O-benzyl-Lpm [a1], on Mtb RNAP σ^A holoenzyme, the “potency in inhibiting Mtb RNAP relative to Lpm” value is “within approximately an order of magnitude of that of Lpm”. Further, in data set [1] (Fig. S5), the “potency in inhibiting Escherichia coli RNAP relative to Lpm” value is “equal to that of Lpm”. The “potency in inhibiting S. aureus RNAP relative to Lpm” value in [2] was “within approximately an order of magnitude of that of Lpm”.

For `ONC(=Nc1ccccc1)c1cccc(C(F)(F)F)c1` [CBR, CBR703], in the data set with E. coli D21f2tolC [3], the “cross-resistance of E. coli Lpm-resistant mutants to the compound” value (shortened to “cross-resistance … to the compound”) was “Absence of significant cross-resistance” and the MICwild-type came to 6.25 µg/mL.

`C/C=C/C/C=C(\C)C(O)CC/C(C)=C/C=C(\C)C(=O)c1c(O)cc([C@H](C)CC/C=C/NC(=O)OC)oc1=O` (some centres unmarked) [Cor, corallopyronin]: the “effect on RNAP clamp conformation” value in the data set with RNAP clamp is on record as “trap a closed-clamp state”.

In general, IC50 refers to the concentration that gives 50% inhibition. Consider `CCc1c(Cl)c(O)c(Cl)c(O)c1C(=O)O[C@H]1[C@H](O)[C@H](OC)[C@H](OC/C2=C\C=C\C[C@H](O)/C(C)=C/[C@H](CC)[C@@H](O[C@@H]3OC(C)(C)[C@@H](OC(=O)C(C)C)[C@H](O)[C@@H]3O)/C(C)=C/C(C)=C/C[C@@H]([C@@H](C)O)OC2=O)O[C@@H]1C` [Lpm, lipiarmycin A3], for which the IC50 is 8 µM in [1] and 200 µM in data set [4]. Moreover, the “ability to inhibit human RNAP I, II, and III” value in the data set on human RNAP I/II/III is “not human RNAP I, II, and III”. In addition, the “cross-resistance of E. coli Rif-, GE/PUM-, Sal-, CBR-, and Stl-resistant mutants to Lpm” value with E. coli D21f2tolC [3] (E. coli D21f2tolC derivatives, Fig. 2E) was “Absence of significant cross-resistance”. In the data set with E. coli D21f2tolC [3], this compound came in with an MICwild-type of 1.56 µg/mL. The “antibacterial interaction of Lpm and Rif when co-administered” value with E. coli D21f2tolC [5] is “additive antibacterial activity”. Besides, the “effect on RNAP clamp conformation in solution” value in data set [6] is listed as “traps the open-clamp state”. Also, the “minimal concentration that prevents colony formation by wild-type transformants” value in the data set with E. coli strain D21f2tolC is 5 µg/mL. For the same compound, the systemic bioavailability entry in [7] was “no systemic bioavailability”.

As for `NC(=O)CC[C@@H](C(=O)NC[C@H]1O[C@@H](c2c[nH]c(=O)[nH]c2=O)[C@H](O)[C@@H]1O)N(O)C(=O)CN=C(N)N` [PUM, pseudoridimycin], in the data set on E. coli D21f2tolC [3], the “cross-resistance … to the compound” value is “Absence of significant cross-resistance” and the MICwild-type was found to be 400 µg/mL.

For `CO[C@H]1/C=C/O[C@@]2(C)Oc3c(C)c(O)c4c(O)c(c(/C=N/N5CCN(C)CC5)c(O)c4c3C2=O)NC(=O)/C(C)=C\C=C\[C@H](C)[C@H](O)[C@@H](C)[C@@H](O)[C@@H](C)[C@H](OC(C)=O)[C@@H]1C` [Rif, rifampin], in the data set on E. coli D21f2tolC [3], the “cross-resistance … to the compound” value is “Absence of significant cross-resistance” and the MICwild-type was 0.20 µg/mL.

Consider `C/C(=C\Cc1ccccc1)CCC(=O)C[C@H]1C[C@H](O)C/C(C)=C/C/C=C/C/C(CC(=O)O)=C\C(=O)O1` [Rip, ripostatin], for which the “effect on RNAP clamp conformation” value in the data set on RNAP clamp is on record as “trap a closed-clamp state”.

Turning to `CNC(=O)[C@@H](C)[C@H]1C(=O)/C(=C(O)/C=C/C(C)=C/[C@@H](C)[C@H]2O[C@@]3(C)O[C@H](C=C[C@@]34CO4)[C@@H]2C)C(=O)N1[C@@H]1CC[C@H](O)[C@H](C)O1` [Stl, streptolydigin], in the data set on E. coli D21f2tolC [3], the “cross-resistance … to the compound” value is “Absence of significant cross-resistance” and the MICwild-type turned out to be 3.13 µg/mL.

As to GE23077, in the data set with E. coli D21f2tolC [3], the “cross-resistance … to the compound” value is “Absence of significant cross-resistance” and the MICwild-type turned out to be 500 µg/mL.

As for myxopyronin, in the data set on E. coli D21f2tolC [3], the “cross-resistance … to the compound” value is “Absence of significant cross-resistance” and the MICwild-type stood at 0.20 µg/mL. For the same compound, the “effect on RNAP clamp conformation” value in the data set on RNAP clamp is reported as “trap a closed-clamp state”.

For salinamide, in the data set on E. coli D21f2tolC [3], the “cross-resistance … to the compound” value was “Absence of significant cross-resistance” and the MICwild-type amounted to 0.049 µg/mL.
